Numbers after ± are expanded uncertainties.
Assay: refractive index (Na D-line) (dimensionless)
Settings: 298.15 K; 101.33 kPa; Liquid; Abbe refractometer
`Cc1ccccc1C` [1,2-dimethylbenzene] gave a refractive index of 1.5018 ± 0.0005. In the case of `Cc1cccc(C)c1` [1,3-dimethylbenzene], the refractive index is reported as 1.4943 ± 0.0005. `Cc1ccc(C)cc1` [1,4-dimethylbenzene] showed a refractive index of 1.4925 ± 0.0005. Molecule `c1ccccc1` [benzene] has a refractive index of 1.499 ± 0.0004. Molecule `CCCCCCCCCCCC` [dodecane] has a refractive index of 1.4275 ± 0.0005. For `CCCCCCCCCCCCCCCC` [hexadecane], the refractive index was 1.4325 ± 0.0005. `CCCCCC` [hexane] gave a refractive index of 1.3728 ± 0.0005. `Cc1ccccc1` [toluene] gave a refractive index of 1.494 ± 0.0004.

From the NIST ThermoML archive (doi:10.1021/je010317u)
